{
  "source": "patent US20100189766A1",
  "about": "“SUBSTANCE DELIVERING PUNCTUM IMPLANTS AND METHODS” (QLT PLUG DELIVERY, INC., priority 2008, published 2010)",
  "assay": "Diffusion or passage of latanoprost from the substance insert through the wall of the punctum plug",
  "format": "physicochemical",
  "excerpt": "In applications where it is desired to deliver the therapeutic or diagnostic substance to or through the cornea or the eye it is desirable to cause the substance to become dissolved in the tear film TF which covers the cornea of the eye, while deterring or minimizing untoward loss of substance through other routes, such as through direct absorption into tissues surrounding the punctum and/or canaliculus LC in which the device is implanted (referred to generally herein as “pericanalicular tissue absorption”) or by drainage through the naso-lacrimal system into the nose. One way to limit or deter such loss of substance is to render all or part of the punctum plug 12, 12a impervious to the substance so that the substance cannot diffuse or pass through the wall of the punctum plug 12, 12a. This may be particularly important in embodiments where the punctum plug 12, 12a is formed of silicone or other material through which the substance can pass. […] The substance insert receiving portion 20b may have the same configuration as either of those substance insert receiving portions 20, 20a described above. However, in this embodiment, a coating 60 has been applied to the outer surface of the side wall of the substance insert receiving portion 20b. Such coating may also be applied to other portions of the punctum plug 12b or to the entire punctum plug 12b. […]",
  "data": [
    {"smiles": "CC(C)OC(=O)CCC/C=C\\C[C@@H]1[C@@H](CC[C@@H](O)CCc2ccccc2)[C@H](O)C[C@@H]1O", "note": "[latanoprost]", "values": [
      {"measurement": "diffusion or passage through the wall of the punctum plug", "setting": "punctum plug formed of silicone, no coating, substance insert contains latanoprost", "result": "some of the latanoprost will diffuse or pass through the wall of the punctum plug"},
      {"measurement": "loss by diffusion or passage through the punctum plug", "setting": "substance-impervious coating 60 applied to outer surface of the substance insert receiving portion and/or other portions of the punctum plug", "result": "substantially prevented"}
    ]}
  ]
}
